From patent publication US6124308A, “Optically active phenyl pyrimidine derivatives as analgesic agent” (priority 1995, dated 2000)
Counter-ions that a name gives are not always drawn. Like-named read-outs stand apart in the source and are kept apart here.

Legend:
[1] = Solubility of salts in water and pH (drug addition method); assay type: physicochemical; conditions: water, room temperature
Procedure: The solubility was determined by means of the drug addition method. At room temperature the drug was added to 0.25 ml deionised water. The sample was diluted to 2 ml for pH determination. A single determination was carried out.

[2] = Melting profile / stability of salts (Mettler hotstage and DSC); assay type: physicochemical; conditions: for Hotstage/DSC results indicates (racemisation on heating) / temperature of racemisation indicated by hotstage/DSC: 10° C./min
Procedure: Events on heating were monitored visually using a Mettler hotstage and a microscope. A DSC scan was then used to confirm the observed events and identify the type of event. The DSC experiments were performed using the Perkin Elmer DSC-7 system with a TAC7/DX recorder. In order to capture as many events as possible a scan irate of 10° C./min and 1-2 mg sample size was used. DSC sweeps between 40° C. and 400° C. or from and to 50° C. outside any event observed on the hot stage were carried out on one or two samples. The samples and reference (air) were placed in 50 μl aluminium pans with holes.

[3] = tested on: veratrine-evoked glutamate release from rat brain slices; test: Inhibition of veratrine-evoked glutamate release; assay type: cell-based
[4] = tested on: maximal electroshock seizure; test: Maximal electroshock test, mice, different routes of administration; assay type: in vivo, mouse; conditions: Mus musculus, mice, 1 hour, read-out: ED50 (95% limits)
[5] = tested on: maximal electroshock seizure; test: Maximal electroshock test, rats, i.v., stronger current (200 mA); assay type: in vivo; conditions: Rattus norvegicus, iv, 1 h
Source text: A stronger current (200 mA) was used compared with that (20 mA) used in the other procedures.

[6] = target: T1, rat type IIA sodium channels (Rattus norvegicus, UniProt P04775); test: Recombinant rat type IIA sodium channels in chinese hamster ovary cells, whole-cell recording; assay type: cell-based; conditions: for IC50: IC50 (inhibition of Na+ currents)
T1 construct: no beta subunit mentioned
Source text: The IC50 's at two different holding potentials (Vh) were as follows: […]

[7] = tested on: hind-limb extension (maximal electroshock seizure); test: Maximal electroshock test, rats, i.p., duration of action; assay type: in vivo, rat; conditions: for ED50: Rattus norvegicus, ip; for ED50 (95% limits): i.p.
[8] = tested on: whole-cell sodium currents in cultured rat hippocampal neurones; test: Whole-cell sodium currents in cultured embryonic rat hippocampal neurones, patch-clamp; assay type: cell-based; conditions: for IC50: 20 msec pulses to -10 mV from holding potential -60 mV, read-out: IC50 (reduction of peak sodium current); for reduction of peak sodium current: holding potential -60 mV
Source text: (b) Cultured embryonic rat hippocampal neurones
Sodium currents were elicited by the application of 20 msec dipolarisng pulses, thereby lowering membrane potential to -10 mV from a holding potential of -60 mV.

[9] = tested on: PGE2-induced acute hyperalgesia; test: Effects on the development of PGE2-induced acute hyperalgesia (paw pressure); assay type: in vivo, rat; conditions: 1 h before PGE2 (100 ng), n=5
Procedure: Effects on the development of PGE2 -induced acute hyperalgesia
Reaction times to paw pressure were measured 3 h after PGE2 injection. Ataxia was scored at the same time by observation of the rats placed in an arena.

[10] = tested on: striatal dopamine in MPTP injected C57B1/6 mice; test: MPTP induced neurotoxic model, striatal dopamine levels; assay type: in vivo, mouse
Procedure: Six-week old male C57B1/6 mice (Japan SLC Co., Hamamatu) were housed ten per case in a temperature-controlled room under a 12-hours light/12-hours dark cycle with free access to food and water.
Mice received i.p. injections of the R(-) enantiomer and the S(+) enantiomer (30 mg/kg) in olive oil starting 12 hours before MPTP injection and every 12 hours for the next 5-injections. Control mice received olive oil only.
Mice receive s.c. injection of MPTP-HCl (40 mg of free base per kg; Research Biochemicals) in saline. Control mice received saline only.
HPLC with electrochemical detection was used to measure striatal levels of dopamine (J.C. Garcia': Journal of Chromatography B. 656 (1994) 77-80).
Seven days after the MPTP injection, mice ([…]) were killed and striata were dissected out, immediately frozen, and stored at -80° C. until analysis. On the day of the assay, tissue samples were sonicated in 10 vol(wt/vol) of 0.1M perchloric acid /1.9 mM sodium hydrogen sulfite containing 1.6μg/ml 3,4-dihydroxybenzylamine hydrobromide(Sigma) as an internal standard. After centrifugation (2,800× g for 10 min at room temperature) and filtration (0.5 μm; Millipore membrane filter), 10 μl of supernatant was injected onto an Inertsil ODS3 column (4.6×250 mm; GL Science, Tokyo). The mobile phase consisted of 88% 115 mM NaH2 PO4 /0.178 mM Na2 EDTA /0.92 mM 1-octanesulfonic acid (pH=2.6) solution and 12% ethanol. F low rate was 1.0 ml/min. Peaks were detected by a Shimazu electrochemical detector LECD-6A(700 mV).

Half-life in male rats = assay type: in vivo, rat
rat liver DHFR = target: T2, rat liver DHFR (Rattus norvegicus, UniProt Q920D2); test: Activity against dihydrofolate reductase (DHFR), spectrophotometric assay; assay type: biochemical; conditions: at 100 μM
T2 construct: rat liver DHFR; from tissue; host or cells: rat liver
T2 sequence (Q920D2 1-187): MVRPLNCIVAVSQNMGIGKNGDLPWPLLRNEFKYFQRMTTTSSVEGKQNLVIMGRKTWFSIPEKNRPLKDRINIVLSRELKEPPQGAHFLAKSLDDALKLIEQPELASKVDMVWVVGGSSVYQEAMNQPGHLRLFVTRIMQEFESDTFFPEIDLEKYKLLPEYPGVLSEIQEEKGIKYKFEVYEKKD

T1 sequence (P04775 whole entry): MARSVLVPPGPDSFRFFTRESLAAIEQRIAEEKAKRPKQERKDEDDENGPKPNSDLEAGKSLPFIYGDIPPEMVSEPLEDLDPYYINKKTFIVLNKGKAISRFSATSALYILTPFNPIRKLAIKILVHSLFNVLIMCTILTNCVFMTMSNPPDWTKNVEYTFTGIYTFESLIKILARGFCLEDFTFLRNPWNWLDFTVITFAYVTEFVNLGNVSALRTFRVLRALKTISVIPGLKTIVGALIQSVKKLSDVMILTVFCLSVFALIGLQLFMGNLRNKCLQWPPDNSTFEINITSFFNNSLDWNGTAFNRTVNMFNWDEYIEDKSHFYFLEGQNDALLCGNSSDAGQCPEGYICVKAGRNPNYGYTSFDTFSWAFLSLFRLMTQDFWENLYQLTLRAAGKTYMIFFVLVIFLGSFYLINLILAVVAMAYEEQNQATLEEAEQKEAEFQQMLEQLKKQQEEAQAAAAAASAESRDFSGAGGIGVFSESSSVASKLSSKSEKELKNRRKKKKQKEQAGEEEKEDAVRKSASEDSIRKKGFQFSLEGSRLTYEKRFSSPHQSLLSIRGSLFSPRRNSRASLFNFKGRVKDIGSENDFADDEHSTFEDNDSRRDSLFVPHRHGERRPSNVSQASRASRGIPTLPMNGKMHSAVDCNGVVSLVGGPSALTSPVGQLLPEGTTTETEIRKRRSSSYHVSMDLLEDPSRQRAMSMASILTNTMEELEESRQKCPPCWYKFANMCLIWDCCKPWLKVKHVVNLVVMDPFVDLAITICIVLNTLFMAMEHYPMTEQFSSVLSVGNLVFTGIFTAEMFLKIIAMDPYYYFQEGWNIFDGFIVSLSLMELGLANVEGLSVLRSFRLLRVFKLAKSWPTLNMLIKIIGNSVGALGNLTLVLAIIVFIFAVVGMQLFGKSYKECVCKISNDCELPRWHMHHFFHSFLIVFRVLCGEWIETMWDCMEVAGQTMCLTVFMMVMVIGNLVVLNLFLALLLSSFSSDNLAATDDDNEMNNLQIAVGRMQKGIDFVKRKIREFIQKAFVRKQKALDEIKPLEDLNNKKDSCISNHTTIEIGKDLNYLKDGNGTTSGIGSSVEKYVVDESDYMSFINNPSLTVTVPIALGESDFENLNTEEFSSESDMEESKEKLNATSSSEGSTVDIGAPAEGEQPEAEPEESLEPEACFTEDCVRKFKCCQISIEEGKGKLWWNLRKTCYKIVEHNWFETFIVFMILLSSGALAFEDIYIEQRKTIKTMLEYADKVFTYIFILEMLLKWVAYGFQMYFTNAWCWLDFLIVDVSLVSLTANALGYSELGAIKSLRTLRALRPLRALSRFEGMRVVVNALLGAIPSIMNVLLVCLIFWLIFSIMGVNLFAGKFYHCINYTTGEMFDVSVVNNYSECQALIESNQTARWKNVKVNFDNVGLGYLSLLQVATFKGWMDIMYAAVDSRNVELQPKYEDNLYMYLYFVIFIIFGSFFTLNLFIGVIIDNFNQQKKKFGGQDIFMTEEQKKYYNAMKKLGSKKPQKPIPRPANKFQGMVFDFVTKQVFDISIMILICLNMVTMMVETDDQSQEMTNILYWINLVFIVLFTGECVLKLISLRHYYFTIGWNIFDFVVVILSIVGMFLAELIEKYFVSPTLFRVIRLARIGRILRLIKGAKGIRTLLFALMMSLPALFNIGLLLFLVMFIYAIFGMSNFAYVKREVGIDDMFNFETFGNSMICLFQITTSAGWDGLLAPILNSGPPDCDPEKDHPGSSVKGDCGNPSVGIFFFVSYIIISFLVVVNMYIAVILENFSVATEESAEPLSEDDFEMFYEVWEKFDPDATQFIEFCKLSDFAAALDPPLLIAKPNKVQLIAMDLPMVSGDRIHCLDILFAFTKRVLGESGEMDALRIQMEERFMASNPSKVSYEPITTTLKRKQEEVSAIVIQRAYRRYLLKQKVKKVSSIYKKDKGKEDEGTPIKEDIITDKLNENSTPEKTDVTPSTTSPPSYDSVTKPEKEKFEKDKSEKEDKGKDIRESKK

In the case of `Nc1nc(N)c(-c2cccc(Cl)c2Cl)c(CF)n1` [Benzenesulphonate], the “pH of the solution” value [1] is reported as 2.43 and the “stability profile suggested by the tests” value [2] is reported as “could provide good stability”.

With `Nc1nc(N)c(-c2cccc(Cl)c2Cl)c(CF)n1` [Malonate] the “pH of the solution” value [1] was 3.2 and the “stability profile suggested by the tests” value [2] was “could provide good stability”.

For `Nc1nc(N)c(-c2cccc(Cl)c2Cl)c(CF)n1` [Citrate], the “pH of the solution” value [1] was 3.99 and the “stability profile suggested by the tests” value [2] was “could provide good stability”.

In the case of `Nc1nnc(-c2cccc(Cl)c2Cl)c(N)n1` [Lamotrigine, 3,5-diamino-6-(2,3-dichlorophenyl)-1,2,4-triazine, reference compound], the IC50 ([3]; Rattus norvegicus) is reported as 21 µM, the ED50 ([4]; ip, i.p.) is reported as 2.3 mg/kg and the ED50 ([4]; po, p.o.) is reported as 3.3 mg/kg. The ED50 ([4]; sc, s.c.) was 1.8 mg/kg, the ED50 [5] was 2.5 mg/kg and the IC50 ([6]; Vh = -60 mV) was 98 µM. For the same compound, the IC50 ([6]; Vh = -90 mV) was 413 µM, the “inhibition of Na+ currents” value ([6]; R(-)enantiomer 1-500 μM) was “inhibition of Na^+ currents in a concentration-dependent and voltage-dependent manner” and the ED50 ([7]; rats, 0.5 hours, read-out: ED50 (95% limits)) was 2.7 mg/kg. For the same compound, the ED50 ([7]; rats, 1 hour, read-out: ED50 (95% limits)) was 3.3 mg/kg, the ED50 ([7]; rats, 2 hours, read-out: ED50 (95% limits)) was 2.7 mg/kg and the ED50 ([7]; rats, 4 hours, read-out: ED50 (95% limits)) was 2.3 mg/kg. For the same compound, the ED50 ([7]; rats, 8 hours, read-out: ED50 (95% limits)) was 4.8 mg/kg, the ED50 ([7]; rats, 24 hours, read-out: ED50 (95% limits)) was 7.1 mg/kg and the IC50 ([8]; Rattus norvegicus, Hippocampal neurone) was 16 µM. The “reduction of peak sodium current” value [8] was “concentration-dependent reduction of peak sodium current” and the ED50 ([9]; Rattus norvegicus, po, read-out: Analgesia ED50 (95% limits)) was 34.8 mg/kg.

In the case of `Nc1nc(N)c(-c2cccc(Cl)c2Cl)c(CF)n1` [Succinate], the “pH of the solution” value [1] is reported as 4.09, the “Hotstage/DSC results indicates (racemisation on heating)” value (shortened to “Hotstage/DSC results indicates”) [2] is reported as “Racemisation” and the “temperature of racemisation indicated by hotstage/DSC” value (“temperature … by hotstage/DSC” for short) [2] is reported as 81 °C.

In the case of `Nc1nc(N)c(-c2cccc(Cl)c2Cl)c(CF)n1` [(L)-Lactate], the “pH of the solution” value [1] is reported as 3.43, the “solubility of four salts” value [1] is reported as “less than 1 mg/ml” and the “Hotstage/DSC results indicates” value [2] is reported as “Racemisation”. The “temperature … by hotstage/DSC” value [2] was 143 °C.

In the case of `Nc1nc(N)c(-c2cccc(Cl)c2Cl)c(CF)n1` [Phosphate], the “pH of the solution” value [1] is reported as 2.34, the “solubility of the equivalent base over or around 25 mg/ml” value (from here on “solubility … over or around 25 mg/ml”) [1] is reported as “around 25 mg/ml” and the “stability profile suggested by the tests” value [2] is reported as “could provide good stability”.

For `Nc1nc(N)c(-c2cccc(Cl)c2Cl)c(CF)n1` [Tartrate], the “pH of the solution” value [1] was 3.48 and the “stability profile suggested by the tests” value [2] was “could provide good stability”.

In the case of `Nc1nc(N)c(-c2cccc(Cl)c2Cl)c(CF)n1` [HCl, R(-)-2,4-diamino-5-(2,3-dichlorophenyl)-6-fluoromethyl Pyrimidine Monohydrochloride], the “pH of the solution” value ([1]; Monohydrochloride) is reported as 3.61, the solubility ([1]; solubility of the equivalent base over or around 25 mg/ml) is reported as about 25 mg/mL and the “Hotstage/DSC results indicates” value ([2]; Monohydrochloride) is reported as “Racemisation”. The “temperature … by hotstage/DSC” value ([2]; Monohydrochloride) was 243 °C.

With `Nc1nc(N)c(-c2cccc(Cl)c2Cl)c(CF)n1` [Benzoate] the “pH of the solution” value [1] was 4.17, the “solubility of four salts” value [1] was “less than 1 mg/ml” and the “Hotstage/DSC results indicates” value [2] was “unstable”.

In the case of `Nc1nc(N)c(-c2cccc(Cl)c2Cl)c(CF)n1` [S(+)enantiomer, S(+)-2,4-diamino-5-(2,3-dichlorophenyl)-6-fluoromethyl pyrimidine, reference compound], the “% protection” value ([10]; 30 mg/kg i.p. 6 times, MPTP 40 mg/kg s.c.) is reported as 20.3%, the “Dopamine content in the striatum” value ([10]; 30 mg/kg i.p. 6 times, MPTP 40 mg/kg s.c., day 7) is reported as 7.99 ± 1.55 μg/g wet tissue and the “% mortality” value ([10]; 30 mg/kg i.p., day -1 to 7) is reported as 0%. The “inhibition of veratrine-evoked glutamate release” value ([3]; at 10 μM) was 0%, the “ED50 (95% limits)” value ([7]; rats, 0.5 hours, 30 min) was 17.6 (11.6-26.4) mg/kg and the “ED50 (95% limits)” value ([7]; rats, 1 hour, 60 min) was 19.0 (12.7-28.5) mg/kg. The “ED50 (95% limits)” value ([7]; rats, 2 hours, 120 min) was 30.7 (20.9-45.3) mg/kg, the “ED50 (95% limits)” value ([7]; rats, 4 hours, 240 min) was 87.3 (47.7-168) mg/kg and the “half-life (t1/2)” value (Half-life in male rats) was 3.1 h. The IC50 [8] was 20 µM, the “reduction of peak sodium current” value [8] was “concentration-dependent reduction of peak sodium current” and the “Analgesia ED50 (95% limits)” value ([9]; p.o.) was 50.1 (39.2-70.5) mg/kg. The “inhibition of rat liver DHFR” value (rat liver DHFR) was 33%.

For `Nc1nc(N)c(-c2cccc(Cl)c2Cl)c(CF)n1` [Naphthalenedisulphonate], the “solubility of four salts” value [1] was “less than 1 mg/ml” and the “stability profile suggested by the tests” value [2] was “could provide good stability”.

In the case of `Nc1nc(N)c(-c2cccc(Cl)c2Cl)c(CF)n1` [Sulphate], the “pH of the solution” value [1] is reported as 1.92, the “solubility … over or around 25 mg/ml” value [1] is reported as “around 25 mg/ml” and the “stability profile suggested by the tests” value [2] is reported as “could provide good stability”. The “Hotstage/DSC results indicates” value [2] was “Racemisation” and the “temperature … by hotstage/DSC” value [2] was 194 °C.

In the case of `Nc1nc(N)c(-c2cccc(Cl)c2Cl)c(CF)n1` [Methanesulphonate, R(-)-2,4-diamino-5-(2,3-dichlorophenyl)-6-fluoromethyl Pyrimidine Methanesulphonate], the “pH of the solution” value [1] is reported as 3.33, the “solubility … over or around 25 mg/ml” value [1] is reported as “around 25 mg/ml” and the “stability profile suggested by the tests” value [2] is reported as “could provide good stability”. The “Hotstage/DSC results indicates” value [2] was “Racemisation” and the “temperature … by hotstage/DSC” value [2] was 240 °C.

In the case of `Nc1nc(N)c(-c2cccc(Cl)c2Cl)c(CF)n1` [Acetate], the “pH of the solution” value [1] is reported as 5.54, the solubility ([1]; read-out: solubility of four salts) is reported as under 1 mg/mL and the “Hotstage/DSC results indicates” value [2] is reported as “Racemisation”. The “temperature … by hotstage/DSC” value [2] was about 200 °C.

For `Nc1nc(N)c(-c2cccc(Cl)c2Cl)c(CF)n1` [Fumarate], the “pH of the solution” value [1] was 3.04, the “Hotstage/DSC results indicates” value [2] was “Racemisation” and the “temperature … by hotstage/DSC” value [2] was 127 °C.

With `Nc1nc(N)c(-c2cccc(Cl)c2Cl)c(CF)n1` [Isethionate, R(-)-2,4-diamino-5-(2,3-dichlorophenyl)-6-fluoromethyl Pyrimidine Isethionate] the “pH of the solution” value [1] was 1.67, the “solubility … over or around 25 mg/ml” value [1] was “around 25 mg/ml” and the ED50 [5] was 1.5 mg/kg. It also gave an ED50 ([7]; 2 h, read-out: ED50 at 2 hrs (isethionate salt versus base), i.p., 2 hrs, calculated as the base, p<0.05) of 1.8 mg/kg.

In the case of `Nc1nc(N)c(-c2cccc(Cl)c2Cl)c(CF)n1` [Toluenesulphonate], the “stability profile suggested by the tests” value [2] is reported as “could provide good stability”.
